Measured values reported in ChEMBL document CHEMBL4229365, “Synthesis of novel ring-contracted artemisinin dimers with potent anticancer activities” (Eur J Med Chem, 2018).
Active and inactive are the calls of the source. The calls are words filed in the database; no cut-off is given here.

What was measured:
A549 = test: Antiproliferative activity against human A549 cells after 72 hrs by CCK-8 assay; type: functional, cell-based; conditions: A549, 72 h
PC-12 [1] = test: Cell cycle arrest in rat PC12 cells assessed as accumulation at S phase at 5 uM after 24 hrs by propidium iodide/RNase A staining-based flow cytometric analysis (reference value: 30.30%); type: functional
PC-12 [2] = test: Induction of apoptosis in rat PC12 cells assessed as increase in Bax protein expression up to 5 uM after 72 hrs by Western blot analysis; type: functional, cell-based
L02 = test: Antiproliferative activity against human L02 cells after 72 hrs by CCK-8 assay; type: cell-based; conditions: L02, 72 h
[3] = Stability of the compound in air at 60 degC after 24 hrs; type: physicochemical
PC-12 [4] = test: Cell cycle arrest in rat PC12 cells assessed as accumulation at S phase at 3 uM after 24 hrs by propidium iodide/RNase A staining-based flow cytometric analysis (reference value: 30.30%); type: functional
[5] = Half life in human liver microsomes at 1.11 uM preincubated for 10 mins followed by NADPH addition by LC-MS/MS analysis; type: ADME, microsome
PC-12 [6] = test: Cell cycle arrest in rat PC12 cells assessed as accumulation at S phase at 1 uM after 24 hrs by propidium iodide/RNase A staining-based flow cytometric analysis (reference value: 30.30%); type: functional
PC-12 [7] = test: Induction of apoptosis in rat PC12 cells assessed as decrease in Bcl-xL level up to 5 uM after 72 hrs by Western blot analysis; type: functional, cell-based
PC-12 [8] = test: Induction of apoptosis in rat PC12 cells assessed as increase in cleaved caspase9 expression level after 72 hrs by Western blot analysis; type: functional, cell-based
HCT-116 = test: Antiproliferative activity against human HCT116 cells after 72 hrs by CCK-8 assay; type: functional, cell-based; conditions: HCT-116, 72 h
PC-12 [9] = test: Cell cycle arrest in rat PC12 cells assessed as accumulation at G2 phase at 5 uM after 24 hrs by propidium iodide/RNase A staining-based flow cytometric analysis (reference value: 11.63%); type: functional
PC-12 [10] = test: Cell cycle arrest in rat PC12 cells assessed as accumulation at G1 phase at 3 uM after 24 hrs by propidium iodide/RNase A staining-based flow cytometric analysis (reference value: 58.07%); type: functional
PC-12 [11] = test: Induction of apoptosis in rat PC12 cells assessed as increase in Bad protein expression up to 5 uM after 72 hrs by Western blot analysis; type: functional, cell-based
PC-12 [12] = test: Cell cycle arrest in rat PC12 cells assessed as accumulation at G1 phase at 1 uM after 24 hrs by propidium iodide/RNase A staining-based flow cytometric analysis (reference value: 58.07%); type: functional
[13] = Clearance in human liver microsomes at 1.11 uM preincubated for 10 mins followed by NADPH addition by LC-MS/MS analysis; type: ADME, microsome; conditions: read-out: CLH
PC-12 [14] = test: Induction of apoptosis in rat PC12 cells assessed as nuclear fragmentation up to 3.13 uM after 24 hrs by Hoechst 33258 staining-based fluorescence microscopic method; type: functional, cell-based
PC-12 [15] = test: Induction of apoptosis in rat PC12 cells assessed as apoptotic cells up to 3.13 uM after 24 hrs by Annexin V-FITC/propidium iodide staining-based flow cytometric analysis (reference value: 6.56%); type: functional
PC-12 [16] = test: Cell cycle arrest in rat PC12 cells assessed as accumulation at G1 phase after 24 hrs by propidium iodide/RNase A staining-based flow cytometric analysis; type: functional
PC-12 [17] = test: Induction of apoptosis in rat PC12 cells assessed as nuclear condensation up to 3.13 uM after 24 hrs by Hoechst 33258 staining-based fluorescence microscopic method; type: functional, cell-based
PC-12 [18] = test: Cell cycle arrest in rat PC12 cells assessed as accumulation at G2 phase at 1 uM after 24 hrs by propidium iodide/RNase A staining-based flow cytometric analysis (reference value: 11.63%); type: functional
A-375 = test: Antiproliferative activity against human A375 cells after 72 hrs by CCK-8 assay; type: functional, cell-based; conditions: A-375, 72 h
PC-12 [19] = test: Antiproliferative activity against rat PC12 cells after 72 hrs by CCK-8 assay; type: functional, cell-based; conditions: PC-12, 72 h
PC-12 [20] = test: Cell cycle arrest in rat PC12 cells assessed as accumulation at G1 phase at 5 uM after 24 hrs by propidium iodide/RNase A staining-based flow cytometric analysis (reference value: 58.07%); type: functional
SH-SY5Y = test: Antiproliferative activity against human SH-SY5Y cells after 72 hrs by CCK-8 assay; type: functional, cell-based
PC-12 [21] = test: Cell cycle arrest in rat PC12 cells assessed as accumulation at G2 phase at 3 uM after 24 hrs by propidium iodide/RNase A staining-based flow cytometric analysis (reference value: 11.63%); type: functional
PC-12 [22] = test: Induction of apoptosis in rat PC12 cells assessed as increase in cleaved caspase3 expression level after 72 hrs by Western blot analysis; type: functional, cell-based

With `C[C@@H]1CC[C@@H]2[C@]34OO[C@](C)(CC[C@@H]13)O[C@H]4O[C@]2(C)COP(=O)(OC[C@@]1(C)O[C@@H]2O[C@@]3(C)CC[C@H]4[C@H](C)CC[C@@H]1[C@@]24OO3)Oc1ccccc1` the IC50 (A549) was 6.37 µM, the Activity (PC-12 [1]) was 10.33% and the Activity (PC-12 [2]) was “Active”. For the same molecule, the IC50 (L02) was 10.3 µM, the Stability [3] was “Stable” and the Activity (PC-12 [4]) was 13.79%. For the same molecule, the half-life at 1.11 µM [5] was 18.3 min, the Activity (PC-12 [6]) was 14.7% and the Activity (PC-12 [7]) was “Active”. The Activity (PC-12 [8]) was “Dose-dependent effect”, the IC50 (HCT-116) was 6.61 µM and the Activity (PC-12 [9]) was 3.61%. The Activity (PC-12 [10]) was 79.4%, the Activity (PC-12 [11]) was “Active” and the Activity (PC-12 [12]) was 76.54%. For the same molecule, the microsomal CLint at 1.11 µM [13] was 54 µL/min/mg, the Activity (PC-12 [14]) was “Active” and the Activity (PC-12 [15]) was 6.56 - 31.04%. For the same molecule, the Activity (PC-12 [16]) was “Dose-dependent effect”, the Activity (PC-12 [17]) was “Active” and the Activity (PC-12 [18]) was 8.77%. It also gave an IC50 (A-375) of 5.96 µM, an IC50 (PC-12 [19]) of 1.56 µM and an Activity (PC-12 [20]) of 86.06%. The IC50 (SH-SY5Y) was 3.48 µM, the Activity (PC-12 [21]) was 6.81% and the Activity (PC-12 [22]) was “Dose-dependent effect”.
